This note sets out measurements from US8999984B2, “Macrophage migration inhibitory factor antagonists and methods of using same” (University of Louisville Research Foundation, Inc., priority 2006, dated 2015).

A value given as a limit tells only on which side of the number the result lay.

A word on the IC50: it is the concentration that gives 50% inhibition.

For one assay, the target named is T1, MIF/sCD74 (Homo sapiens, UniProt P14174).
T1 construct: made in house; host or cells: E. coli BL21 (DE3)pLysS (sCD74)
T1 sequence (P14174 2-115 limits assumed): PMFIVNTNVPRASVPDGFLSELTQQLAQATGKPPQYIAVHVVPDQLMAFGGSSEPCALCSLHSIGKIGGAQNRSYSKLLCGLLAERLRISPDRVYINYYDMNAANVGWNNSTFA
Put plainly: MIF/MIF receptor (CD74) capture assay. The assay is classed as binding. The note with it: 0.1 μM antagonist against 0.2 μM biotinylated MIF (maximal inhibition possible 50%); FIG. 14B. On the procedure: FIGS. 14A-14C are a schematic (FIG. 14C) of a MIF/MIF receptor capture assay and graphs of data collected from the assay (FIGS. 14A and 14B) that provides a tool for structure-function studies of MIF muteins and candidate inhibitors. […] FIG. 14A is a graph of data from the assay where CD74 coated plates were pre-incubated with the indicated concentrations of native MIF (MIF), denatured MIF or P1G MIF followed by the addition of 0.2 μM biotin-hrMIF. FIG. 14B is a graph of data from the assay where 1.0 μM of denatured MIF (dMIF), native MIF (MIF) or anti-CD74 were pre-incubated with soluble CD74 for 30 mins before adding 0.2 μM biotin-hrMIF. For inhibitors, 0.1 μM ISO-1 or 4-iodo-6-phenyl pyrimidine (Cmp16) were pre-incubated for 30 mins with 0.2 μM biotin-hrMIF before adding mixture to CD74 coated plate. In both FIGS. 14A and 14B, plates were developed 2 hours later by incubating Streptavidin-AP followed by PnPP and measurement at OD405.
As previously noted, the ability of small molecule antagonists to block MIFs biological functions requires the blockade of MIF binding to its cell surface receptor (Meyer-Siegler et al., 2006). […]
96 well plates can be coated with 60 μl/well of purified, soluble CD74 (CD74^73-232) at 0.1 mg/ml and incubated at 4° C. overnight. […] After washing, 60 μl/well of PNPP (Sigma) is added and allowed to develop in the dark until being read at 405 nm.

Another assay addresses T2, recombinant MIF (rMIF) (Homo sapiens, UniProt P14174).
T2 construct: made in house
T2 sequence (P14174 2-115 limits assumed): T1 sequence (P14174 2-115 limits assumed)
Put plainly: L-dopachrome methyl ester tautomerase assay. The assay is classed as biochemical. The following applies: 500 nM rMIF pre-mixed 5 or 10 min with inhibitor, 2 mM L-dopachrome methyl ester; FIG. 8; read-out: IC50, MIF enzyme (tautomerase) inhibition.

Assay [1] relates to A549 human lung adenocarcinoma cells. Put plainly: A549 NSCLC xenograft tumor outgrowth. The class given is in vivo, Balb/c (nu/nu) mice. The following applies: 2 mg intraperitoneally every day; vehicle mice developed lesions beginning at day 16; FIG. 12. How it is done:
FIG. 12 is a graph showing Inhibition of NSCLC tumor growth by the MIF inhibitor 4-iodo-6-phenylpyrimidine. Balb/c (nu/nu mice were injected with 1×10^6 A549 human lung adenocarcinoma cells subcutaneously (4 mice/group). Vehicle or 4-iodo-6-phenylpyrimidine (Cmpd 16; 2 mg) were injected intraperitoneally every day for the course of the study. Tumor growth was monitored by palpation every fourth day as indicated. Results are expressed as percent of tumor free mice/group.
In a study designed to evaluate the in vivo efficacy of anti-MIF compounds, 4-iodo-6-phenylpyrimidine (compound #16) was tested in a xenograft model of human non-small cell lung cancer (NSCLC) outgrowth.

The subject of another assay is VEGF. Put plainly: CoCl2-induced VEGF expression and secretion (ELISA). The assay is classed as cell-based. The following applies: read-out: suppression of PHD inhibitor (CoCl2) induced VEGF. The text has this:
It was next tested whether the observed differences in the catalytic inhibitory activities between these two compounds was similarly observed in this biological assay of MIF inhibition. […] Of note, this ˜5 fold difference in biological inhibitory activity closely corresponds to the ˜5 fold difference in enzymatic inhibitory activity that was observed when comparing these two compounds (FIG. 8).
In general terms: In an ELISA, binding on a coated surface is turned into a signal by an enzyme label.

Protocol for recombinant MIF (rMIF): 500 nM recombinant MIF (rMIF) was pre-mixed for either 5 (filled) or 10 (open) minutes with the indicated inhibitor concentrations followed by the addition of 2 mM final concentration of L-dopachrome methyl ester substrate. 5 minutes later OD 475 was measured spectrophotometrically, with tautomerization leading to colorless substrate.
In FIG. 10A, 500 nM rMIF was pre-mixed for 30 seconds with the indicated inhibitor concentrations followed by the addition of 2 mM final concentration of L-dopachrome methyl ester substrate. 5 minutes later OD 475 was measured spectrophotometrically (tautomerization leads to colorless substrate) and resulting data graphed.
Dopachrome tautomerase assay. […] MIF catalysis and inhibitory studies can be performed as described (Lubetsky et al., 2002). […] Activity can be determined at room temperature by adding dopachrome methyl ester (0.3 ml) to a cuvette containing 500 nM rMIF (Bernhagen et al., 1994) in 50 mM potassium phosphate buffer, pH 6, 0.5 mM EDTA and 5 minutes later measuring the decrease in absorbance at 475 nm spectrophotometrically. […] Additionally, candidate inhibitors identified in the last section of the present Example can be dissolved in DMSO at various concentrations and added to the cuvette (final concentration of DMSO will be no more than 0.1%) with the MIF 1 minute prior to the addition of the dopachrome substrate.

As to `Ic1cc(-c2ccccc2)ncn1` [compound #16, 4-iodo-6-phenylpyrimidine], at MIF/sCD74, the “inhibition of MIF receptor (CD74) binding” value was 50%. Also, the IC50 at recombinant MIF (rMIF) is approximately 5 µM. In assay [1], the “tumor outgrowth (tumor free mice)” value is listed as “remained tumor free”. For the same compound, the inhibition at 50 µM in the assay with VEGF is more than 80%.
